Data on 18 compounds can be found in ChEMBL document CHEMBL1944625, “Design and synthesis of 3,5-diarylpiperidin-2,6-diones as anticonvulsant agents” (Bioorg Med Chem Lett, 2012).

The structures appear in SMILES notation. Where only a bound is given, the exact number is not on record here.

The nature of series [1]: Neurotoxicity in ip dosed Swiss albino mouse assessed as impair in motor coordination from 0.5 to 4 hrs post administration by rotarod test. Format: toxicity, organism-based. The note with it: in vivo. On the technique in general: In the rotarod test animals must keep their balance on a rotating rod.
The species named for series [2] is Mus musculus. As to the kind of experiment: Protection index, ratio of TD50 for Swiss albino mouse by rotarod test to ED50 for Swiss albino mouse by maximal electroshock test. Format: functional.
In series [3] the test system is Mus musculus. As to the kind of experiment: Anticonvulsant activity in Swiss albino mouse assessed as protection against maximal electroshock-induced seizures measuring inhibition of extension phase at 25 mg/kg, ip after 2 hrs. Format: functional. To be noted: route intraperitoneal.
For series [4], the system named is Mus musculus. As to the kind of experiment: Neurotoxicity in Swiss albino mouse assessed as impair in motor coordination at 300 mg/kg, ip after 0.5 hrs by rotarod test. Format: toxicity, organism-based. Set-up: dose 300 mg/kg, route intraperitoneal. The note with it: in vivo.
Series [5] deals with Mus musculus. As to the kind of experiment: Neurotoxicity in Swiss albino mouse assessed as impair in motor coordination at 300 mg/kg, ip after 4 hrs by rotarod test. Format: toxicity, organism-based. Also noted: dose 300 mg/kg, route intraperitoneal. To be noted: in vivo.
The subject of series [6] is Mus musculus. The series can be described thus: Anticonvulsant activity in ip dosed Swiss albino mouse assessed as protection against maximal electroshock-induced seizures after 2 hrs. Type of series: functional. In general terms: The maximal electroshock test induces tonic seizures with an electrical stimulus.
Series [7] relates to Mus musculus. As to the kind of experiment: Neurotoxicity in Swiss albino mouse assessed as impair in motor coordination at 100 mg/kg, ip after 0.5 hrs by rotarod test. Format: toxicity, organism-based. Also noted: dose 100 mg/kg, route intraperitoneal. The note with it: in vivo.

Consider `O=C1C(c2ccccc2Cl)CC(c2ccccc2Cl)C(=O)N1c1cccc(Cl)c1` (configuration not stated), for which the TD50 in series [1] was found to be 108 mg/kg. For the same compound, in series [2], the “Ratio TD50/ED50” value was found to be 1.8. Moreover, in series [3], the inhibition in vivo at 25 mg/kg stood at 43.7%. Further, the Activity result in series [4] and in series [5] was “Non-toxic” each time. In addition, the 50% effective dose (ED50) in series [6] was 60.2 mg/kg.

For `O=C1NC(=O)C(c2ccccc2)CC1c1ccccc1` (configuration not stated), the TD50 in series [1] is 193 mg/kg. Besides, in series [2], the “Ratio TD50/ED50” value is recorded as 17.5. Besides, the inhibition in vivo at 25 mg/kg in series [3] stood at 70.2%. The Activity result in series [4] and in series [5] was “Non-toxic” each time. Besides, the ED50 in series [6] was 11 mg/kg.

As for `CN1C(=O)C(c2ccccc2)CC(c2ccccc2)C1=O` (configuration not stated), the TD50 in series [1] is 323 mg/kg. Moreover, in series [2], the “Ratio TD50/ED50” value is 21.8. Moreover, the inhibition in vivo at 25 mg/kg in series [3] turned out to be 69.1%. Also, the Activity entry in series [7] and in series [5] was “Toxic” each time. Further, the median effective dose (ED50) in series [6] was 14.8 mg/kg.

For `O=C1C(c2ccccc2)CC(c2ccccc2)C(=O)N1c1ccccc1` (configuration not stated), the TD50 in series [1] is 165 mg/kg. Further, the “Ratio TD50/ED50” value in series [2] was found to be 3.7. In addition, the inhibition in vivo at 25 mg/kg in series [3] was found to be 38.3%. For the same compound, the results for the Activity entry in series [4] and in series [5] were “Toxic” and “Non-toxic”, respectively. For the same compound, the median effective dose (ED50) in series [6] worked out at 43.7 mg/kg.

For the compound `O=C1C(c2ccccc2)CC(c2ccccc2)C(=O)N1Cc1ccccc1` (configuration not stated), in series [1], the TD50 was 218 mg/kg. Moreover, the “Ratio TD50/ED50” value in series [2] is on record as 15.6. In addition, the inhibition in vivo at 25 mg/kg in series [3] is 64.5%. Further, the Activity entry in series [4] and in series [5] was “Non-toxic” throughout. The ED50 in series [6] stood at 14 mg/kg.

For the compound `NN1C(=O)C(c2ccccc2)CC(c2ccccc2)C1=O` (configuration not stated), the TD50 in series [1] is 123 mg/kg. In addition, the “Ratio TD50/ED50” value in series [2] is reported as 12.3. Moreover, the inhibition in vivo at 25 mg/kg in series [3] came to 76%. Moreover, the Activity result in series [4] and in series [5] was “Non-toxic” in each case. Further, the ED50 in series [6] is 10 mg/kg.

Regarding `O=C1C(c2ccccc2)CC(c2ccccc2)C(=O)N1c1cccc(Cl)c1` (configuration not stated), in series [3], the inhibition in vivo at 25 mg/kg was determined as 32.2%. Further, the results for the Activity entry in series [4] and in series [5] were “Toxic” and “Non-toxic”, respectively. Besides, in series [6], the ED50 was above 100 mg/kg.

Take `Cc1ccccc1N1C(=O)C(c2ccccc2)CC(c2ccccc2)C1=O` (configuration not stated): the TD50 in series [1] stood at 104 mg/kg. Further, in series [2], the “Ratio TD50/ED50” value is 4.9. The inhibition in vivo at 25 mg/kg in series [3] worked out at 66.1%. For the same compound, the Activity result is given as “Toxic” in series [4] and “Non-toxic” in series [5]. Besides, the ED50 in series [6] stood at 21.5 mg/kg.

With `Cc1ccc(N2C(=O)C(c3ccccc3)CC(c3ccccc3)C2=O)cc1` (configuration not stated), the TD50 in series [1] was 190 mg/kg. Moreover, the “Ratio TD50/ED50” value in series [2] was 2.3. Moreover, the inhibition in vivo at 25 mg/kg in series [3] is 43.3%. Further, the Activity result in series [7] and in series [5] was “Toxic” in each case. The ED50 in series [6] turned out to be 82 mg/kg.

For `O=C1NC(=O)C(c2ccccc2Cl)CC1c1ccccc1Cl` (configuration not stated), the TD50 in series [1] was found to be 175 mg/kg. In addition, the “Ratio TD50/ED50” value in series [2] came to 7. Moreover, the inhibition in vivo at 25 mg/kg in series [3] was 58.3%. Further, the Activity result in series [4] and in series [5] was “Non-toxic” in each case. Also, the ED50 in series [6] stood at 25.5 mg/kg.

As to `CN1C(=O)C(c2ccccc2Cl)CC(c2ccccc2Cl)C1=O` (configuration not stated), in series [1], the TD50 came out at 220 mg/kg. For the same compound, the “Ratio TD50/ED50” value in series [2] is 9.2. Also, in series [3], the inhibition in vivo at 25 mg/kg is 61.7%. The Activity entry in series [7] and in series [5] was “Toxic” in each case. For the same compound, the ED50 in series [6] stood at 23.7 mg/kg.

Regarding `O=C1C(c2ccccc2Cl)CC(c2ccccc2Cl)C(=O)N1c1ccccc1` (configuration not stated), the TD50 in series [1] came out at 198 mg/kg. In addition, in series [2], the “Ratio TD50/ED50” value turned out to be 3.2. In addition, the inhibition in vivo at 25 mg/kg in series [3] stood at 40.6%. Moreover, the Activity result in series [4] and in series [5] was “Non-toxic” each time. In addition, the median effective dose (ED50) in series [6] was 61.4 mg/kg.

On to `O=C1C(c2ccccc2Cl)CC(c2ccccc2Cl)C(=O)N1Cc1ccccc1` (configuration not stated), for which the TD50 in series [1] turned out to be 106 mg/kg. In addition, the “Ratio TD50/ED50” value in series [2] is given as 2.7. Also, the inhibition in vivo at 25 mg/kg in series [3] was determined as 58.2%. The Activity entry in series [4] and in series [5] was “Non-toxic” throughout. The ED50 in series [6] came to 38.3 mg/kg.

As for `NN1C(=O)C(c2ccccc2Cl)CC(c2ccccc2Cl)C1=O` (configuration not stated), in series [1], the TD50 turned out to be 117 mg/kg. Also, in series [2], the “Ratio TD50/ED50” value stood at 10.6. In series [3], the inhibition in vivo at 25 mg/kg is 73.3%. The Activity result in series [4] and in series [5] was “Toxic” each time. Further, the median effective dose (ED50) in series [6] was determined as 11.2 mg/kg.

As to `Cc1ccccc1N1C(=O)C(c2ccccc2Cl)CC(c2ccccc2Cl)C1=O` (configuration not stated), the TD50 in series [1] is 227 mg/kg. Further, the “Ratio TD50/ED50” value in series [2] stood at 8.3. Moreover, the inhibition in vivo at 25 mg/kg in series [3] was 60.6%. For the same compound, the Activity entry in series [4] and in series [5] was “Non-toxic” in each case. Moreover, the 50% effective dose (ED50) in series [6] came out at 27.4 mg/kg.

With `Cc1ccc(N2C(=O)C(c3ccccc3Cl)CC(c3ccccc3Cl)C2=O)cc1` (configuration not stated), in series [1], the TD50 turned out to be 86.5 mg/kg. In addition, the “Ratio TD50/ED50” value in series [2] was determined as 2.1. Also, the inhibition in vivo at 25 mg/kg in series [3] worked out at 58.2%. Moreover, the Activity entry in series [4] is recorded as “Toxic”; in series [5] it was “Non-toxic”. Also, the median effective dose (ED50) in series [6] came to 41.2 mg/kg.

Consider `NC(=O)N1c2ccccc2C=Cc2ccccc21` [CARBAMAZEPINE], for which the “Ratio TD50/ED50” value in series [2] is given as 6.4. For the same compound, in series [6], the ED50 came to 11.8 mg/kg.

`O=C1N=C(O)NC1(c1ccccc1)c1ccccc1` [PHENYTOIN SODIUM]: the inhibition in vivo at 25 mg/kg in series [3] came out at 80.7%.

Broadly, the TD50 is the 50% point of the dose-response relation for the toxic effect studied. As a reminder, the inhibition in vivo is how much of the control response was suppressed. As a reminder, the ED50 is the dose at which the effect has come halfway, by size or by number of responders.
